How the values were obtained:
[1] = Cytotoxicity of lipophenols (MTT cell viability, 24 h); format: cell-based, human; conditions: human, ARPE-19 cells; for CC50 at 24 h: serum free medium, 0–160 µM, MTT, mean ± SD, n ≥ 3, read-out: ARPE-19 CC50 (concentration of lipophenol killing 50% of ARPE-19 cells)
Protocol: (§1) Cell viability was determined by MTT colorimetric assay. The cells were incubated for 2 h with MTT reagent (0.5 mg/mL). During this incubation time, dehydrogenases of the living cells reduce the MTT to insoluble purple formazan. The absorbance at 570 nm and 655 nm of individual wells of the cell was measured using a microplate reader (BioRad 550, USA). […] The percentage of the viable cells was calculated as [(OD570 sample − OD655 sample)/(OD570 control − OD655 control)] × 100%.
(§2) ARPE-19 cells were plated into 96-well plates (4 × 10^4 cells/well) and cultured for 24 h to reach confluence before lipophenol treatment. The cell cultures were treated with serum free medium containing the lipophenols at different concentrations (0–160 µM) for 24 h. Control cells were incubated with DMSO (0.2%). The viability of the cells was determined using MTT colorimetric assay as described above and expressed in percentage of viable cells normalized with control conditions in the absence of lipophenols. When a dose-dependent toxicity was observed, CC50 was calculated.

ARPE-19 cells [2] = experiment: Protection against ROS production (DCFDA probe, H2O2 stress); format: cell-based, human; conditions: for IC50: H2O2 600 µM for 4 h, DCFDA, mean ± SD, n ≥ 3, read-out: ROS production IC50 (concentration needed to inhibit 50% of the ROS induced by H2O2)
Protocol: ROS activity was measured in ARPE-19 cells with dichlorofluorescein diacetate (DCFDA) reagent. DCFDA is deacetylated by cellular esterases to dichlorofluorescein (DCFH), which can then be oxidized by ROS into the fluorophore 2′,7′–dichlorofluorescein (DCF). ARPE-19 cells were plated into black, optically clear bottom 96-well plates (4 × 10^4 cells/well) and cultured for 24 h to reach confluence before the drug treatment. The cell cultures were incubated with 2 µM of DCFDA for 45 min in DMEM/F12 medium without phenol red + 1% FBS. The cells were rinsed and incubated with the medium containing lipophenols at different concentrations (0–80 µM) for 1 h. Then, H2O2 was added to a final concentration of 600 µM for 4 h, followed by the measurement of DCF production by fluorescence spectroscopy with excitation wavelength at 485 nm and emission wavelength at 535 nm. […] Control cells were incubated with DMSO (0.2%) ± DCFDA ± H2O2. The percentage of ROS produced was calculated as [(fluorescence of sample)/(fluorescence of control)] × 100%. The results are expressed in percentage of ROS produced normalized with control conditions in the absence of lipophenol and presence of stressor. When a dose-dependent inhibition was observed, IC50 was calculated.

ARPE-19 cells [3] = experiment: Cytotoxicity of lipophenols (MTT cell viability, 24 h); format: cell-based, human; conditions: for Toxicity in ARPE-19 cells (in words): tested 0–160 µM
Protocol: as §1, §2

ARPE-19 cells [4] = experiment: Protection against photo-oxidized A2E toxicity (MTT cell viability); format: cell-based, human; conditions: for IC50: 1 h pre-treatment, A2E 20 µM 6 h, blue light 30 min, mean ± SD, n ≥ 3, read-out: Protection against A2E toxicity IC50 (concentration needed to inhibit 50% of the toxicity induced by photo-oxidized A2E); for Decrease of the toxic effect of A2E: at 8 µM; for Cells protected from photo-oxidized A2E: at higher concentrations; for Maximum cell viability under photo-oxidized A2E: between 20 and 40 µM; for Potency against photo-oxidized A2E relative to natural quercetin: ratio of IC50
Protocol: as §1
ARPE-19 cells were plated into 96-well plates (4 × 10^4 cells/well) and cultured for 24 h to reach confluence before lipophenol treatment. The cell cultures were treated with serum free DMEM/F12 medium without phenol red containing lipophenols at different concentrations (0–80 µM) for 1 h. Then A2E was added to a final concentration of 20 µM for 6 h before rinsing with medium. Control cells were incubated with DMSO (0.2%) with or without A2E. The cells were exposed to intense blue light (4600 LUX) for 30 min to induce phototoxicity of A2E and incubated at 37 °C. The cell viability was determined 16–20 h later using a MTT colorimetric assay. Results are expressed in percentage of viable cells normalized with control conditions in the absence of lipophenols and stressor. When a dose-dependent efficiency was observed, IC50 was calculated.

ARPE-19 cells [5] = test system: ARPE-19 cells; design: method as in PMID 27659166; conditions: 60 µM, cells treated twice for 3 days before A2E stress; cited from earlier work
[6] = test system: porcine primary RPE cells; design: method as in PMID 27992460; conditions: at 20 µM; cited from earlier work
Abca4 −/− Rdh8 −/− mice = test system: Abca4 −/− Rdh8 −/− mice; design: method as in PMID 27992460; conditions: treated orally for three months; cited from earlier work
RPE cells = conditions: 100 µM; cited from earlier work
[7] = test system: Balb-c male mice photoreceptors; design: method as in PMID 29541735; conditions: cited from earlier work
[8] = Homo sapiens, ARPE-19, 1 h pre-incubation

CCCCC/C=C\C/C=C\CCCCCCCC(=O)Oc1ccc(/C=C/c2cc(O)cc(O)c2)cc1 [Resv-4′-LA (8), resveratrol-4′-LA] showed a CC50 at 24 h [1] of over 160 µM, an IC50 (ARPE-19 cells [2]; [8]) of over 80 µM and an ROS scavenged (ARPE-19 cells [2]; at 80 µM, Figure S1) of 40%.

For Oc1cc(O)c2c(c1)O[C@H](c1ccc(O)c(O)c1)[C@@H](O)C2 [(+)-catechin, reference compound], the “Toxicity in ARPE-19 cells (in words)” value (ARPE-19 cells [3]; 24 h) was “no apparent toxicity”, the CC50 at 24 h [1] was over 160 µM and the IC50 (ARPE-19 cells [2]; [8]) was 5.93 ± 0.06 µM.

With O=c1c(O)c(-c2ccc(O)c(O)c2)oc2cc(O)cc(O)c12 [Quercetin, quercetin, reference compound] the “Toxicity in ARPE-19 cells (in words)” value (ARPE-19 cells [3]; 24 h) was “moderate toxicity”, the CC50 at 24 h [1] was 111 ± 4.92 µM and the IC50 (ARPE-19 cells [2]; [8]) was 6.82 ± 0.73 µM. For the same compound, the IC50 (ARPE-19 cells [4]; Homo sapiens, ARPE-19) was 23.9 µM and the viability at 40 µM (ARPE-19 cells [4]; Homo sapiens, ARPE-19, at 40 µM, read-out: Maximum cell viability under photo-oxidized A2E) was 78%.

Compound Oc1cc(O)cc(O)c1 [Phloroglucinol, phloroglucinol, reference compound] has a CC50 at 24 h [1] of over 160 µM and an IC50 (ARPE-19 cells [2]; [8]) of 10.2 ± 3.44 µM.

In the case of CC/C=C\C/C=C\C/C=C\C/C=C\C/C=C\C/C=C\CCC(=O)Oc1c(-c2ccc(O)c(O)c2)oc2cc(O)cc(O)c2c1=O [Quer-3-DHA (15)], the “Toxicity in ARPE-19 cells (in words)” value (ARPE-19 cells [3]; 24 h) is reported as “slight toxicity”, the CC50 at 24 h [1] is reported as 134 ± 8.09 µM and the IC50 (ARPE-19 cells [2]; 1 h pre-incubation) is reported as 59.4 ± 18.8 µM. The IC50 (ARPE-19 cells [2]; [8]) was about 60 µM.

For Oc1cc(O)cc(/C=C/c2ccc(O)c(O)c2)c1 [piceatannol], the “Protection against photo-oxidized A2E (in words, compared with 88–89% cell viability)” value (ARPE-19 cells [5]) is given as “Same level of protection”.

For CCCCC/C=C\C/C=C\CCCCCCCC(=O)O[C@H]1Cc2c(O)cc(O)cc2O[C@@H]1c1ccc(O)c(O)c1 [Cat-3-LA (9), catechin-3-LA], the “Concentration from which cytotoxicity on ARPE-19 starts” value (ARPE-19 cells [3]; 24 h, MTT) was at least 80 µM, the CC50 at 24 h [1] was 149 ± 6.61 µM and the IC50 (ARPE-19 cells [2]; [8]) was 10.6 ± 4.41 µM.

For CC(/C=C/C=C(C)/C=C/C(=O)O)=C\C=C\C=C(C)\C=C\C=C(C)\C=C\C(=O)O (stereo in doubt) [Norbixin], the “Protection against A2E illuminated” value [6] is given as 90–100% and the “Effect on A2E in mice (in words)” value (Abca4 −/− Rdh8 −/− mice) is given as “able to reduce A2E”.

For CCCCC/C=C\C/C=C\CCCCCCCC(=O)Oc1cc(O)cc(O)c1 [Phloro-LA (3), Phloroglucinol-LA], the CC50 at 24 h [1] was over 160 µM, the IC50 (ARPE-19 cells [2]; [8]) was over 80 µM and the “ROS scavenging potency relative to natural homologue (phloroglucinol)” value (ARPE-19 cells [2]; ratio of ROS IC50) was “nine times less potent”.

CC/C=C\C/C=C\C/C=C\CCCCCCCC(=O)Oc1cc(O)c2c(=O)c(O)c(-c3ccc(O)c(O)c3)oc2c1 [Quer-7-ALA (18), quercetin-7-ALA] showed a CC50 at 24 h [1] of over 160 µM, a viability at 24 h ([1]; up to 160 µM, Figure 8, 100% = non-treated control cells) of 128% and an IC50 (ARPE-19 cells [2]; [8]) of 9.44 ± 2.37 µM. For the same compound, the “ROS scavenging potency relative to analogue 3-ALA” value (ARPE-19 cells [2]; ratio of ROS IC50) was 6 times, the melting point was 235.8 °C and the IC50 (ARPE-19 cells [4]; Homo sapiens, ARPE-19) was 8.45 µM. The “Decrease of the toxic effect of A2E” value (ARPE-19 cells [4]) was 50%, the “Cells protected from photo-oxidized A2E” value (ARPE-19 cells [4]) was “up to 90%” and the “Maximum cell viability under photo-oxidized A2E” value (ARPE-19 cells [4]) was 88–89%. For the same compound, the “Potency against photo-oxidized A2E relative to natural quercetin” value (ARPE-19 cells [4]) was “three times more potent”.

For CCCCC/C=C\C/C=C\CCCCCCCC(=O)Oc1c(-c2ccc(O)c(O)c2)oc2cc(O)cc(O)c2c1=O [Quer-3-LA (13), quercetin-3-LA], the “Cell survival in cytotoxicity assay” value (ARPE-19 cells [3]; at 80 µM, Figure 8, 100% = non-treated control cells) was 150%, the “Toxicity in ARPE-19 cells (in words)” value (ARPE-19 cells [3]; 24 h) was “no toxicity was observed up to 160 µM” and the CC50 at 24 h [1] was over 160 µM. It also gave an IC50 (ARPE-19 cells [2]; 1 h pre-incubation) of 52.2 ± 10.8 µM, an IC50 (ARPE-19 cells [2]; [8]) of about 60 µM and an IC50 (ARPE-19 cells [4]; Homo sapiens, ARPE-19) of 8.24 µM. For the same compound, the “Decrease of the toxic effect of A2E” value (ARPE-19 cells [4]) was 50%, the “Cells protected from photo-oxidized A2E” value (ARPE-19 cells [4]) was “up to 90%” and the “Maximum cell viability under photo-oxidized A2E” value (ARPE-19 cells [4]) was 88–89%. For the same compound, the “Potency against photo-oxidized A2E relative to natural quercetin” value (ARPE-19 cells [4]) was “three times more potent”.

With CC/C=C\C/C=C\C/C=C\CCCCCCCC(=O)Oc1c(-c2ccc(O)c(O)c2)oc2cc(O)cc(O)c2c1=O [Quer-3-ALA (14), quercetin-3-ALA] the CC50 at 24 h [1] was 69.4 ± 3.46 µM, the IC50 (ARPE-19 cells [2]; 1 h pre-incubation) was 61.7 ± 7.43 µM and the IC50 (ARPE-19 cells [2]; [8]) was about 60 µM. For the same compound, the melting point was 180 °C.

For O=c1c(O[C@@H]2OC[C@H](O)[C@H](O)[C@H]2O)c(-c2ccc(O)c(O)c2)oc2cc(O)cc(O)c12 [3-quercetin glycoside, Quercetin-3-O-α-L-arabinopyranoside], the “Cell viability of RPE cells” value (RPE cells) is listed as ~ 90% and the “Protection of photoreceptors against blue light damages (in words)” value [7] is listed as “protect”.

In the case of Oc1ccc(C=Cc2cc(O)cc(O)c2)cc1 [Resveratrol, 3,4′,5-trihydroxystilbene, reference compound], the CC50 at 24 h [1] is given as over 160 µM, the IC50 (ARPE-19 cells [2]; [8]) is given as 7.4 ± 0.51 µM and the “Protection against photo-oxidized A2E (in words, compared with 88–89% cell viability)” value (ARPE-19 cells [5]) is given as “Same level of protection”.

Source: publication PMC6315395, “New Lipophenol Antioxidants Reduce Oxidative Damage in Retina Pigment Epithelial Cells” (Antioxidants, 2018)
